Assay results: PubChem BioAssay (NCI)
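96-well plates; 48 h exposure; 5 concentrations. Endpoints by linear interpolation between flanking doses. Not reached: highest tested concentration assigned. GI50 = concentration required for 50% inhibition of growth. TGI is the concentration that stops growth completely.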

Columns and labels:
Assay in all cases: inhibition of tumour cell growth, NCI panel, 48 h
HL-60(TB) leukemia = system: HL-60(TB) leukemia
HT29 colon = system: HT29 colon
K-562 leukemia = system: K-562 leukemia
LOX IMVI melanoma = system: LOX IMVI melanoma
MCF7 breast = system: MCF7 breast
MOLT-4 leukemia = system: MOLT-4 leukemia
RPMI-8226 leukemia = system: RPMI-8226 leukemia
SK-MEL-5 melanoma = system: SK-MEL-5 melanoma
SK-OV-3 ovarian = system: SK-OV-3 ovarian
SN12C renal = system: SN12C renal

Structure (SMILES) | GI50 (HL-60(TB) leukemia) [µM] | TGI (HL-60(TB) leukemia) [µM] | GI50 (HT29 colon) [µM] | TGI (HT29 colon) [µM] | GI50 (K-562 leukemia) [µM] | TGI (K-562 leukemia) [µM] | GI50 (LOX IMVI melanoma) [µM] | TGI (LOX IMVI melanoma) [µM] | GI50 (MCF7 breast) [µM] | TGI (MCF7 breast) [µM] | GI50 (MOLT-4 leukemia) [µM] | TGI (MOLT-4 leukemia) [µM] | GI50 (RPMI-8226 leukemia) [µM] | TGI (RPMI-8226 leukemia) [µM] | GI50 (SK-MEL-5 melanoma) [µM] | TGI (SK-MEL-5 melanoma) [µM] | GI50 (SK-OV-3 ovarian) [µM] | TGI (SK-OV-3 ovarian) [µM] | GI50 (SN12C renal) [µM] | TGI (SN12C renal) [µM]
Nc1ncccc1-c1nc2ccc(-c3ccccc3)nc2n1-c1ccc(C2(N)CCC2)cc1 | 1.83 | 3.92 | 0.435 | 3.37 | 1.89 | 4.5 | 1.37 | 2.77 | 0.0465 | 1.68 | 0.188 | 7.88 | 1.74 | 4.78 | 1.36 | 2.67 | 0.166 | 3.01 | 2.29 | 13.5
O=C(O)COc1ccc(C(=O)/C(SS/C(C(=O)c2ccc(OCC(=O)O)c(Cl)c2Cl)=C2\C=C(c3ccc(Br)cc3)SS2)=C2/C=C(c3ccc(Br)cc3)SS2)c(Cl)c1Cl |  | 4.67 |  | > 100 |  | > 100 |  | 13.7 |  | 13.2 |  | 15 |  | 18.2 |  | 43.1 |  | > 89.5 |  | > 100
COc1ccc2c(c1)/C(=C\c1c[nH]c3ccc(OC)cc13)C(=O)N2 | 2.97 | 6.07 | 4.07 | 14.9 | 2.21 | 15.5 | 3.25 | 13.6 | 2.65 | 13.1 | 2.95 | 8.14 | 2.39 | 8.89 | 3.02 | 12.5 | 2.58 | 8.64 | 3.07 | 12.6
Cn1nnc2c(C(N)=O)ncn2c1=O |  | > 100 |  | > 100 |  | > 100 |  | > 100 |  | > 100 |  | > 100 |  | > 100 |  | > 100 |  | 100 |  | > 100
CN1CCN(c2cc3nc4ccccc4n(-c4ccc(Cl)cc4)c-3cc2=N)CC1 |  | 4.35 | > 100 | > 100 | 0.356 | 23.5 | 15.7 | 36.6 | 35.6 | > 100 | 12.8 | 32 | 12.1 | 35.1 | 16.3 | 32.7 | > 100 | > 100 | 19.4 | 41.4
NS(=O)(=O)c1cccc(-c2ccc3c(NC(=O)C4CC4)n[nH]c3c2)c1 | 8.31 | > 22.5 | > 14.4 | > 25 | 8.38 | > 25 | 19.4 | > 25 | > 13.3 | > 24.1 | 19.2 | > 25 | > 25 | > 25 | > 14.7 | > 25 | 9.16 | 23.6 | > 21.1 | > 25
O=S(=O)(NC1=NCCN1C(=S)SN1CCn2c1nsc2=S)c1cccc(OC(F)(F)F)c1 | > 100 | > 100 | 6.91 | 26.4 | 4.47 | > 100 | 3.71 | 12.4 | 4.17 | 17.2 | 2.71 | 10.8 | 2.06 | 4.44 | 16.6 | 32.8 | 23.5 | 46.5 | 11.3 | 26.7
CC/C=C\C/C=C/C=C1/C(=O)C=C[C@@H]1C/C=C\CCCC(=O)OC | 2.24 | 12.5 | 2.21 | 5.57 | 1.38 | 20.9 | 0.417 | 1.79 | 0.5 | 12.5 | 1.36 | 11.2 | 2.46 | 12.8 | 1.99 | 4.05 | 9.25 | 49.9 | 2.7 | 7.79
CC1(C)CC2=C(Sc3ccccc3N2)C(=O)C1C(=O)C(=O)Nc1cc(Cl)ccc1Cl (centres undefined) |  | > 100 |  | > 100 |  | > 100 |  | > 100 |  | > 100 |  | > 100 |  | > 100 |  | > 100 |  | > 100 |  | > 100
COc1ccc2c(c1)C(=O)c1c-2c(N2CCNCC2)nc2ccccc12 | 1.8 | 5.16 | 1.49 | 3.34 | 2.64 | > 100 | 1.79 | 3.5 | 1.28 | 2.58 | 0.688 | 3.03 | 1.64 | 3.39 | 11.3 | 24.7 | 6 | 19.2 | 3.91 | 14.9
Clc1ccccc1NN(Cc1ccncc1)c1ccccc1Cl |  | 37 |  | 26.1 |  | 30.2 |  | 30.3 |  | 53.5 |  | 33.9 |  | 42.2 |  | 27.6 |  | 44.9 |  | 26.5
Cc1c2ccncc2c(C)c2c1c1cc(CO)ccc1n2C | 0.854 | 5.6 | 0.338 | 1.78 | 0.473 | 5.82 | 0.449 | 2.1 | 0.282 | 10.4 | 0.368 | 2.13 | 0.425 | 2.28 | 1.08 | 2.7 | 0.784 | 3.71 | 0.442 | 5.35
NC(=O)c1cccc(-c2cc(C(N)=O)ccc2Cl)c1 | 2.42 | 5.91 | 1.19 | > 100 | 0.36 | > 100 | 4.84 | > 100 | 1.01 | > 100 | 2.22 | 95.7 | 0.318 | 3.11 | 3.62 | 14.8 | 5.63 | > 100 | 4.85 | 88.3
O=c1c(O)cccn1CCCN(CCCn1cccc(O)c1=O)CCn1cccc(O)c1=O | 5.54 | 55.3 | 29.5 | > 100 | 3.97 | > 100 | 2.13 | > 100 | 3.89 | > 100 | 1.79 | > 100 | 1.99 | > 100 | 2.67 | > 100 | 3.37 | > 100 | 3.41 | > 100
NNc1c2ccccc2nc2ccccc12 | 1.78 | 16.9 | 3.28 | 16.1 | 3.32 | 64.7 | 3.62 | 22.4 | 3.77 | 33.7 | 0.897 | > 100 | 0.558 | 17.4 | 2.14 | 13.3 | 6.91 | > 100 | 6.44 | 56.7
Cc1oc2c(c1C(=O)N1CC[C@@H](N)C1)C(=O)c1c(c(O)c3ccccc3c1O)C2=O | 1.17 | 4.31 | 1.68 | 6.66 | 1.86 | 9 | 1.1 | 3.96 | 1.01 | 4.9 | 0.304 | 1.96 | 2.51 | 12.6 | 3.97 | 16.5 | 1.1 | 7.86 | 1.3 | 11
O=[N+]([O-])c1ccc2c(Nc3ccccc3-c3ccccc3Nc3c4ccccc4nc4cc([N+](=O)[O-])ccc34)c3ccccc3nc2c1 |  | 15.1 |  | 26.7 |  | 15.5 |  | 47.4 |  | 39.3 |  | 50.4 |  | > 39.9 |  | 8.09 |  | > 56.2 |  | 58.1
CCOC(=O)C1=C(C)N2C(=NC3=C(CCC/C3=C\c3ccc(Cl)cc3)C2c2ccc(Cl)cc2)S1 (centres undefined) | 3.09 | 9.24 | 2.35 | 5.92 | 3.45 | 11.8 | 1.75 | 3.15 | 2.44 | 11 | 3.06 | 9.27 | 1.22 | 4.04 | 2.93 | 11.4 | 6.68 | > 100 | 3.55 | 21.6
O=c1c(-c2ccccc2)coc2cc(OC/C(=N/O)c3ccc(F)cc3)ccc12 | 15 | 89.7 | 27.8 | > 100 | 16.2 | > 100 | 44.1 | > 100 | 25.9 | > 100 | 24 | > 100 | 18.8 | 59.7 | 11.6 | 23.9 | 15.4 | 35.8 | 16.2 | 34.2
Nc1n[nH]c2ccc([C@@H]3Nc4cc5[nH]ncc5cc4[C@H]4C5CCC(C5)[C@@H]34)cc12 (some centres undefined) | 0.298 | 2.24 | 0.367 | > 44.3 | 0.315 | > 100 | 0.659 | 74.8 | 0.384 | > 80.8 | 0.442 | > 100 | 0.354 | 12.6 | 0.493 | 6.57 | 16 | > 100 | 0.525 | > 82.9
